6 molecules from PubChem BioAssay (NCI) can be followed below.

Some test systems named below: RXF 393 renal; T-47D breast; HCT-15 colon; SK-MEL-2 melanoma; BT-549 breast; MALME-3M melanoma; UO-31 renal; EKVX NSCLC; LOX IMVI melanoma; DU-145 prostate.
Assay in all cases: NCI tumour cell line growth inhibition, 48 h

Structures are written as SMILES.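 Following 48 hours of exposure in 96-well plates, responses at five concentrations were used to interpolate endpoints linearly. Here, GI50 denotes the concentration required for 50% inhibition of growth. The concentration for full growth arrest is given as TGI.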

Turning to `CCC(CC)c1cc(N[C@H]2CC[C@H](N)C2)n2nccc2n1`, the GI50 in the test with RXF 393 renal is 0.632 µM; in the test on T-47D breast, 0.759 µM; in the test on HCT-15 colon, 2.23 µM; with SK-MEL-2 melanoma, 1.64 µM; in the test on BT-549 breast, 1.36 µM; with MALME-3M melanoma, 2.07 µM. For the same molecule, the GI50 in the test with UO-31 renal was 2.08 µM; in the test on EKVX NSCLC, 1.7 µM; in the test on LOX IMVI melanoma, 0.747 µM; with DU-145 prostate, 0.708 µM. Moreover, the TGI in the test with RXF 393 renal was 2.36 µM; in the test with T-47D breast it was greater than 100 µM; with HCT-15 colon, greater than 100 µM; in the test on SK-MEL-2 melanoma, 3.64 µM; with BT-549 breast, 3.22 µM; in the test with MALME-3M melanoma, 6.24 µM. The TGI in the test with UO-31 renal was 5.69 µM; with EKVX NSCLC it was 5.16 µM; in the test with LOX IMVI melanoma, greater than 100 µM; in the test on DU-145 prostate, greater than 100 µM.
For the molecule `Cc1cc(O[C@@H]2O[C@@H](C)[C@H](O)[C@@H](O)[C@H]2O)c2c3c(c(O[C@@H]4O[C@@H](C)[C@H](O)[C@@H](O)[C@H]4O)cc2c1)C(=O)c1c(O)cccc1C3=O`, the GI50 in the test with RXF 393 renal, in the test on T-47D breast, with HCT-15 colon, with SK-MEL-2 melanoma, in the test with BT-549 breast and with MALME-3M melanoma was greater than 30 µM throughout. Besides, the GI50 with UO-31 renal, with EKVX NSCLC, with LOX IMVI melanoma and in the test on DU-145 prostate was greater than 30 µM throughout. For the same molecule, the TGI with RXF 393 renal, in the test on T-47D breast, in the test with HCT-15 colon, with SK-MEL-2 melanoma, in the test on BT-549 breast and in the test on MALME-3M melanoma was greater than 30 µM in each case. Further, the TGI with UO-31 renal, in the test with EKVX NSCLC, in the test on LOX IMVI melanoma and with DU-145 prostate was greater than 30 µM each time.
Turning to `CC(=O)N(C)c1cc(NCc2ccccc2)ccc1OCc1ccccc1`, the TGI in the test on RXF 393 renal is 28.6 µM; in the test with T-47D breast, greater than 100 µM; with HCT-15 colon, 39.2 µM; in the test on SK-MEL-2 melanoma, 30.8 µM; in the test on BT-549 breast, 40.3 µM; with MALME-3M melanoma, 35.3 µM. Further, the TGI with UO-31 renal was 28 µM; in the test with EKVX NSCLC, 42.3 µM; with LOX IMVI melanoma it was 36.2 µM; in the test with DU-145 prostate, 32.7 µM.
Take `O=c1c2cccc(F)c2sc2c(NCCCNCCO)nc3ccccc3c12`: the GI50 in the test on RXF 393 renal was 1.37 µM; in the test with T-47D breast, 1.76 µM; in the test on HCT-15 colon, 1.25 µM; in the test on SK-MEL-2 melanoma, 1.97 µM; in the test with BT-549 breast, 6.16 µM; in the test on MALME-3M melanoma, 1.61 µM. The GI50 with UO-31 renal is 1.1 µM; with EKVX NSCLC, 1.29 µM; in the test on LOX IMVI melanoma, 1.13 µM; in the test on DU-145 prostate, 1.22 µM. Further, the TGI with RXF 393 renal amounted to 2.73 µM; in the test on T-47D breast it was 4.1 µM; in the test with HCT-15 colon, 2.65 µM; in the test with SK-MEL-2 melanoma it was 3.95 µM; in the test on BT-549 breast, 19.8 µM; in the test on MALME-3M melanoma it was 3.12 µM. Besides, the TGI in the test with UO-31 renal is 2.35 µM; in the test on EKVX NSCLC, 2.64 µM; in the test on LOX IMVI melanoma it was 2.38 µM; with DU-145 prostate, 2.48 µM.
Consider `CC(C)(C)[Si](C)(C)OC1[C@@H](O[Si](C)(C)C(C)(C)C)[C@@H](CNC(=O)NC(=O)NC(=O)CCl)O[C@H]1n1cnc2c(NC(=O)Nc3ccccc3)ncnc21` (stereo not given in full), for which the GI50 is 2.13 µM with RXF 393 renal; 8.59 µM in the test on T-47D breast; 9.28 µM in the test on HCT-15 colon; 8.62 µM in the test with SK-MEL-2 melanoma; 6.57 µM with BT-549 breast; 1.34 µM with MALME-3M melanoma. Moreover, the GI50 in the test on UO-31 renal was 0.959 µM; in the test with EKVX NSCLC, 1.69 µM; in the test on LOX IMVI melanoma, 0.236 µM; in the test on DU-145 prostate it was 7.88 µM. Moreover, the TGI stood at 6.88 µM with RXF 393 renal; 17.5 µM with T-47D breast; 22.2 µM in the test with HCT-15 colon; 17.6 µM in the test with SK-MEL-2 melanoma; 13.1 µM in the test with BT-549 breast; 3.64 µM in the test with MALME-3M melanoma. The TGI in the test with UO-31 renal came out at 1.89 µM; in the test with EKVX NSCLC, 6.54 µM; in the test with LOX IMVI melanoma, 0.52 µM; in the test on DU-145 prostate it was 16.4 µM.
As to `O=C(/C=C\c1cc(Br)ccc1O)/C=C/c1cc(Br)ccc1O`, the GI50 was 0.348 µM with RXF 393 renal; 0.635 µM with T-47D breast; 0.384 µM in the test on HCT-15 colon; 2.25 µM with SK-MEL-2 melanoma; 0.897 µM with BT-549 breast; 1.5 µM in the test with MALME-3M melanoma. Moreover, the GI50 with UO-31 renal was 0.882 µM; in the test on EKVX NSCLC, 1.54 µM; with LOX IMVI melanoma, 0.208 µM; in the test on DU-145 prostate it was 0.814 µM. Besides, the TGI was 1.41 µM with RXF 393 renal; 4.94 µM in the test with T-47D breast; 1.76 µM in the test with HCT-15 colon; 6.15 µM in the test with SK-MEL-2 melanoma; 3.84 µM in the test with BT-549 breast; 3.08 µM with MALME-3M melanoma. Moreover, the TGI worked out at 2.2 µM in the test with UO-31 renal, 3.18 µM in the test on EKVX NSCLC, 0.463 µM in the test on LOX IMVI melanoma and 2.17 µM with DU-145 prostate.
